Laboratory results reported in ChEMBL document CHEMBL1201862, “PubChem BioAssay data set” (2004).
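Following 48 hours of exposure in 96-well plates, responses at five concentrations were used to interpolate endpoints linearly. At the GI50, growth is halved.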 Activity calls are given as the source filed them. Rule as the data show it: active = GI50 up to about 1.1 µM and inactive = higher.

Assays:
Test in all cases: inhibition of tumour cell growth, NCI panel, 48 h
OVCAR-3 = system: OVCAR-3
EKVX = system: EKVX
HCT-15 = system: HCT-15
CAKI-1 = system: CAKI-1
MDA-MB-231 = system: MDA-MB-231
MCF7 = system: MCF7
SF-268 = system: SF-268
IGROV-1 = system: IGROV-1
UO-31 = system: UO-31
HL-60 = system: HL-60
SW-620 = system: SW-620
OVCAR-8 = system: OVCAR-8
K562 = system: K562
HCC 2998 = system: HCC 2998
RPMI-8226 = system: RPMI-8226
PC-3 = system: PC-3
BT-549 = system: BT-549
NCI/ADR-RES = system: NCI/ADR-RES
TK-10 = system: TK-10
SK-MEL-5 = system: SK-MEL-5
HOP-92 = system: HOP-92
COLO 205 = system: COLO 205
M14 = system: M14
MDA-N = system: MDA-N
HT-29 = system: HT-29
SK-MEL-28 = system: SK-MEL-28
SF-539 = system: SF-539
LOX IMVI = system: LOX IMVI
UACC-257 = system: UACC-257
NCI-H23 = system: NCI-H23
SR = system: SR
HOP-62 = system: HOP-62
SK-OV-3 = system: SK-OV-3
A549 = system: A549
SNB-19 = system: SNB-19
UACC-62 = system: UACC-62
DU-145 = system: DU-145
U-251 = system: U-251
HCT-116 = system: HCT-116
T47D = system: T47D
NCI-H460 = system: NCI-H460
Hs-578T = system: Hs-578T
SNB-75 = system: SNB-75
A498 = system: A498
RXF 393 = system: RXF 393
MDA-MB-435 = system: MDA-MB-435
786-0 = system: 786-0
KM12 = system: KM12
SK-MEL-2 = system: SK-MEL-2
ACHN = system: ACHN
MOLT-4 = system: MOLT-4
SF-295 = system: SF-295
NCI-H522 = system: NCI-H522
NCI-H226 = system: NCI-H226
Malme-3M = system: Malme-3M
CCRF-CEM = system: CCRF-CEM
SN12C = system: SN12C
OVCAR-5 = system: OVCAR-5
OVCAR-4 = system: OVCAR-4

In the case of `O=c1oc2ccccc2cc1-c1nc2ccc([N+](=O)[O-])cc2o1`, the GI50 (OVCAR-3) is reported as > 100 µM (inactive), the GI50 (EKVX) is reported as > 100 µM (inactive) and the GI50 (HCT-15) is reported as greater than 100 µM. The GI50 (CAKI-1) was > 100 µM (inactive), the GI50 (MDA-MB-231) was > 100 µM (inactive) and the GI50 (MCF7) was 83.8 µM (inactive). For the same molecule, the GI50 (SF-268) was > 100 µM (inactive), the GI50 (IGROV-1) was > 100 µM (inactive) and the GI50 (UO-31) was > 100 µM (inactive). The GI50 (HL-60) was > 100 µM (inactive), the GI50 (SW-620) was > 100 µM (inactive) and the GI50 (OVCAR-8) was > 100 µM (inactive). For the same molecule, the GI50 (K562) was > 100 µM (inactive), the GI50 (HCC 2998) was > 100 µM (inactive) and the GI50 (RPMI-8226) was > 100 µM (inactive). For the same molecule, the GI50 (PC-3) was > 100 µM (inactive), the GI50 (BT-549) was > 100 µM (inactive) and the GI50 (NCI/ADR-RES) was > 100 µM (inactive). The GI50 (TK-10) was > 100 µM (inactive), the GI50 (SK-MEL-5) was > 100 µM (inactive) and the GI50 (HOP-92) was > 100 µM (inactive). The GI50 (COLO 205) was > 100 µM (inactive), the GI50 (M14) was > 100 µM (inactive) and the GI50 (MDA-N) was > 100 µM (inactive). For the same molecule, the GI50 (HT-29) was 67.6 µM (inactive), the GI50 (SK-MEL-28) was > 100 µM (inactive) and the GI50 (SF-539) was 65.2 µM (inactive). For the same molecule, the GI50 (LOX IMVI) was > 100 µM (inactive), the GI50 (UACC-257) was > 100 µM (inactive) and the GI50 (NCI-H23) was > 100 µM (inactive). For the same molecule, the GI50 (SR) was > 100 µM (inactive), the GI50 (HOP-62) was 28.1 µM (inactive) and the GI50 (SK-OV-3) was > 100 µM (inactive). The GI50 (A549) was > 100 µM (inactive), the GI50 (SNB-19) was 30.2 µM (inactive) and the GI50 (UACC-62) was > 100 µM (inactive). The GI50 (DU-145) was > 100 µM (inactive), the GI50 (U-251) was > 100 µM (inactive) and the GI50 (HCT-116) was > 100 µM (inactive). The GI50 (T47D) was > 100 µM (inactive), the GI50 (NCI-H460) was > 100 µM (inactive) and the GI50 (Hs-578T) was 84.9 µM (inactive). The GI50 (SNB-75) was > 100 µM (inactive), the GI50 (A498) was > 100 µM (inactive) and the GI50 (RXF 393) was > 100 µM (inactive). For the same molecule, the GI50 (MDA-MB-435) was > 100 µM (inactive), the GI50 (786-0) was > 100 µM (inactive) and the GI50 (KM12) was > 100 µM (inactive). For the same molecule, the GI50 (SK-MEL-2) was > 100 µM (inactive), the GI50 (ACHN) was 30.1 µM (inactive) and the GI50 (MOLT-4) was > 100 µM (inactive). The GI50 (SF-295) was 83.4 µM (inactive), the GI50 (NCI-H522) was > 100 µM (inactive) and the GI50 (NCI-H226) was > 100 µM (inactive). The GI50 (Malme-3M) was > 100 µM (inactive), the GI50 (CCRF-CEM) was > 100 µM (inactive) and the GI50 (SN12C) was > 100 µM (inactive).
With `COc1ccc(/C=C2\c3cc(OC)c(OC)cc3CCN2C(=O)c2ccccc2)cc1OC` the GI50 (OVCAR-3) was 35.7 µM (inactive), the GI50 (EKVX) was 4.09 µM (inactive) and the GI50 (HCT-15) was 42.4 µM. The GI50 (CAKI-1) was 54 µM (inactive), the GI50 (MDA-MB-231) was 45.5 µM (inactive) and the GI50 (MCF7) was 43.9 µM (inactive). For the same molecule, the GI50 (SF-268) was 46.3 µM (inactive), the GI50 (IGROV-1) was > 100 µM (inactive) and the GI50 (UO-31) was 35.5 µM (inactive). The GI50 (HL-60) was 23.1 µM (inactive), the GI50 (SW-620) was 34.5 µM (inactive) and the GI50 (OVCAR-8) was 27.5 µM (inactive). For the same molecule, the GI50 (OVCAR-5) was 55 µM (inactive), the GI50 (K562) was 32.1 µM (inactive) and the GI50 (HCC 2998) was 44.6 µM (inactive). The GI50 (RPMI-8226) was 29.4 µM (inactive), the GI50 (PC-3) was 46.5 µM (inactive) and the GI50 (BT-549) was 27.7 µM (inactive). For the same molecule, the GI50 (NCI/ADR-RES) was 23.7 µM (inactive), the GI50 (TK-10) was > 100 µM (inactive) and the GI50 (SK-MEL-5) was 18.5 µM (inactive). The GI50 (HOP-92) was > 100 µM (inactive), the GI50 (COLO 205) was 23.9 µM (inactive) and the GI50 (M14) was 58.2 µM (inactive). The GI50 (MDA-N) was 25 µM (inactive), the GI50 (HT-29) was 30.7 µM (inactive) and the GI50 (SK-MEL-28) was 46.7 µM (inactive). The GI50 (SF-539) was 46.7 µM (inactive), the GI50 (LOX IMVI) was 41.6 µM (inactive) and the GI50 (UACC-257) was 86.9 µM (inactive). For the same molecule, the GI50 (NCI-H23) was 87.5 µM (inactive), the GI50 (SR) was 30.8 µM (inactive) and the GI50 (HOP-62) was 37.2 µM (inactive). The GI50 (A549) was 37.8 µM (inactive), the GI50 (SNB-19) was > 100 µM (inactive) and the GI50 (UACC-62) was 36.7 µM (inactive). The GI50 (DU-145) was 55 µM (inactive), the GI50 (U-251) was 82.6 µM (inactive) and the GI50 (HCT-116) was 35.5 µM (inactive). For the same molecule, the GI50 (T47D) was 33.3 µM (inactive), the GI50 (NCI-H460) was 28.1 µM (inactive) and the GI50 (Hs-578T) was 35.6 µM (inactive). For the same molecule, the GI50 (SNB-75) was 32 µM (inactive), the GI50 (A498) was 35.4 µM (inactive) and the GI50 (RXF 393) was 35.2 µM (inactive). For the same molecule, the GI50 (MDA-MB-435) was 21.2 µM (inactive), the GI50 (786-0) was 34.4 µM (inactive) and the GI50 (KM12) was 49.9 µM (inactive). For the same molecule, the GI50 (SK-MEL-2) was 43.3 µM (inactive), the GI50 (ACHN) was 53.5 µM (inactive) and the GI50 (MOLT-4) was 25.2 µM (inactive). The GI50 (SF-295) was 61.4 µM (inactive), the GI50 (NCI-H522) was 20.3 µM (inactive) and the GI50 (NCI-H226) was 37.9 µM (inactive). For the same molecule, the GI50 (Malme-3M) was 22.5 µM (inactive), the GI50 (CCRF-CEM) was 32.3 µM (inactive) and the GI50 (SN12C) was 70.1 µM (inactive).
In the case of `C=CC(OC(C)=O)c1ccc(OC(C)=O)cc1` (configuration not stated), the GI50 (OVCAR-4) is reported as 17.2 µM (inactive), the GI50 (OVCAR-3) is reported as 6.11 µM (inactive) and the GI50 (EKVX) is reported as 13.8 µM (inactive). For the same molecule, the GI50 (HCT-15) was 8.24 µM, the GI50 (CAKI-1) was 4.88 µM (inactive) and the GI50 (MDA-MB-231) was 3.3 µM (inactive). The GI50 (MCF7) was 11.4 µM (inactive), the GI50 (SF-268) was 4.92 µM (inactive) and the GI50 (IGROV-1) was 15.7 µM (inactive). The GI50 (UO-31) was 2.1 µM (inactive), the GI50 (HL-60) was 3.79 µM (inactive) and the GI50 (SW-620) was 2.21 µM (inactive). For the same molecule, the GI50 (OVCAR-8) was 3.94 µM (inactive), the GI50 (OVCAR-5) was 9.27 µM (inactive) and the GI50 (K562) was 20 µM (inactive). The GI50 (HCC 2998) was 7.01 µM (inactive), the GI50 (RPMI-8226) was 2.25 µM (inactive) and the GI50 (PC-3) was 2.56 µM (inactive). The GI50 (BT-549) was 8.93 µM (inactive), the GI50 (NCI/ADR-RES) was 7.01 µM (inactive) and the GI50 (TK-10) was 2.17 µM (inactive). For the same molecule, the GI50 (SK-MEL-5) was 15 µM (inactive), the GI50 (HOP-92) was 8.47 µM (inactive) and the GI50 (COLO 205) was 3.85 µM (inactive). The GI50 (M14) was 10.5 µM (inactive), the GI50 (MDA-N) was 4.95 µM (inactive) and the GI50 (HT-29) was 4.8 µM (inactive). For the same molecule, the GI50 (SK-MEL-28) was 9.27 µM (inactive), the GI50 (SF-539) was 2.08 µM (inactive) and the GI50 (LOX IMVI) was 2.88 µM (inactive). For the same molecule, the GI50 (UACC-257) was 6.04 µM (inactive), the GI50 (NCI-H23) was 17 µM (inactive) and the GI50 (SR) was 2.69 µM (inactive). For the same molecule, the GI50 (HOP-62) was 3.82 µM (inactive), the GI50 (SK-OV-3) was 17.5 µM (inactive) and the GI50 (A549) was 19.8 µM (inactive). For the same molecule, the GI50 (SNB-19) was 13.9 µM (inactive), the GI50 (UACC-62) was 14.8 µM (inactive) and the GI50 (DU-145) was 10.4 µM (inactive). The GI50 (U-251) was 2.3 µM (inactive), the GI50 (HCT-116) was 7.05 µM (inactive) and the GI50 (T47D) was 2.72 µM (inactive). The GI50 (NCI-H460) was 17.1 µM (inactive), the GI50 (Hs-578T) was 2.37 µM (inactive) and the GI50 (SNB-75) was 3.88 µM (inactive). The GI50 (A498) was 12 µM (inactive), the GI50 (RXF 393) was 14 µM (inactive) and the GI50 (MDA-MB-435) was 3.45 µM (inactive). For the same molecule, the GI50 (786-0) was 1.56 µM (inactive), the GI50 (KM12) was 5.57 µM (inactive) and the GI50 (SK-MEL-2) was 4.97 µM (inactive). The GI50 (ACHN) was 2.54 µM (inactive), the GI50 (MOLT-4) was 3.31 µM (inactive) and the GI50 (SF-295) was 7.62 µM (inactive). For the same molecule, the GI50 (NCI-H522) was 1.91 µM (inactive), the GI50 (NCI-H226) was 15.7 µM (inactive) and the GI50 (Malme-3M) was 2.92 µM (inactive). For the same molecule, the GI50 (SN12C) was 2.1 µM (inactive).
